Marks after values point to notes of the source that are not given here.
Experiments:
[1] = tested on: PD-LID rat model (6-OHDA-lesioned rats); experiment: Dyskinesia-like symptoms (AIMs score) after transdermal tandospirone tape agent in PD-LID rat model; type: in vivo
Text: A rat striatum dopaminergic denervation model using topical administration of 6-hydroxydopamine (hereinafter, also referred to as “6-OHDA”) to one side of the brain is known as a typical experimental model for PD-LID (rats treated on one side with 6-OHDA (6-OHDA-lesioned rats)). Dyskinesia-like abnormal involuntary movements (AIMs) manifest in said model with repeated administration of levodopa (Lundblad et al., European Journal of Neuroscience, 2002, 15: 120-132, Winkler et al., Neurobiology of Disease, 2002, 10: 165-186).
Wistar male rats (12-week old, Japan SLC, Inc.) were used for the preparation of animal models. Desipramine hydrochloride (25 mg/kg; Wako Pure Chemical) was intraperitoneally administered. After 30 minutes from the administration, the rats were subjected to isoflurane inhalational anesthetic using a general anesthesia apparatus for experimental animals. Under isoflurane anesthesia, the rats were immobilized to a brain stereotaxic instrument. The skin on the head was incised with a surgical scalpel to expose the skull. The coordinates of the bregma used as the origin (AP: 0, ML: 0, DV: 0) was determined, and the coordinates of the right medial forebrain bundle (AP: −4.4 mm, ML: 1.5 mm, DV: 7.8 mm from bregma) were measured. After inserting an injection tube for administration at the measured coordinates, 6-OHDA (9 μg/4 μL; Sigma-Aldrich) inducing dopaminergic denervation was topically injected. After 2 weeks from surgery, apomorphine hydrochloride hemihydrate (0.5 mg/kg; Wako Pure Chemical) was subcutaneously administered, and the rotation movement to the opposite side from the 6-OHDA injected site was observed. Rats with 7 rotations or more per minute were used as rats treated on one side with 6-OHDA.
To make a PD-LID model, a mixture of levodopa methyl ester hydrochloride (6 mg/kg; Sigma-Aldrich) dissolved in saline and benserazide hydrochloride (15 mg/kg; Sigma-Aldrich) (hereinafter, also referred to as “levodopa containing solution”) was intraperitoneally administered once daily to 6-OHDA-lesioned rats. The levodopa containing solution was repeated administered for 3 weeks or longer to observe and evaluate the behavior. The behavior was observed and evaluated in a transparent acrylic cage for 1 minute every 20 minutes after 20 minutes from the intraperitoneal administration of the levodopa containing solution, up until after 3 hours from administration. […] The sum of the scores for Limb AIMs, Axial AIMs, and Orolingual AIMs in 3 hours was used as the total AIMs score. Individuals with a total AIMs score of less than 10 were excluded from the test as not manifesting a dyskinesia-like symptom. […] The rats were assigned to each dosing group by using the 3 hour AIMs score, Locomotive behavior score, and rat body weight as indicators, which were used for evaluation of drugs.
When evaluating a tape agent, the hair on the abdominal region of rats was shaved before the evaluation date. […] After 4 hours from application, a levodopa containing solution was intraperitoneally administered to observe and evaluate the behavior. Individuals with 50% or more of the tape agent coming off during the test were excluded from analysis.
After 4 hours from application, a levodopa containing solution was intraperitoneally administered to observe and evaluate the behavior. Individuals with 50% or more of the tape agent coming off during the test were excluded from analysis.
When evaluating dyskinesia-like symptoms, the sum of the Limb AIMs, Axial AIMs, and Orolingual AIMs at each evaluation point was used as the AIMs score.

[2] = tested on: rat Vogel conflict test model; experiment: Rat Vogel conflict test model (anxiolytic action); type: in vivo; conditions: non-clinical models, PD-LID effect in 6-OHDA-lesioned rats
Description: The anxiolytic action was evaluated using a rat Vogel conflict test model, and the effect on PD-LID was evaluated in 6-OHDA-lesioned rats.

[3] = transdermal condition 1, 37 mg/kg, no stripping
[4] = transdermal condition 2, 45 mg/kg, with stripping

O=C1[C@@H]2[C@H]3CC[C@H](C3)[C@@H]2C(=O)N1CCCCN1CCN(c2ncccn2)CC1 [tandospirone, (1R,2S,3R,4S)—N-[4-{4-(pyrimidine-2-yl)piperadine-1-yl}butyl]-2,3-bicyclo[2.2.1]heptanedicarboximide]
difference (decrease) in total AIMs score in 3 hours, placebo tape agent minus tandospirone ([1]; transdermal condition 1 (no stripping), 37 mg/kg): 17.7** | (ii) Indicator of rebound symptom of dyskinesia, in words [1, 3]: No effect | (ii) Indicator of rebound symptom of dyskinesia: difference in total AIMs score in 100 to 180 minutes (placebo minus tandospirone) [1, 3]: −0.1 | difference (decrease) in total AIMs score in 3 hours, placebo tape agent minus tandospirone ([1]; transdermal condition 2 (with stripping), 45 mg/kg): 27.1** | (ii) Indicator of rebound symptom of dyskinesia, in words [1, 4]: No effect | (ii) Indicator of rebound symptom of dyskinesia: difference in total AIMs score in 100 to 180 minutes (placebo minus tandospirone) [1, 4]: 0.9 | anxiolytic action compared with effect on PD-LID [2]: exerted at the same dosage
